The text below walks through data of ChEMBL document CHEMBL1142795, “Synthesis, structure-activity relationships, and anxiolytic activity of 7-aryl-6,7-dihydroimidazoimidazole corticotropin-releasing factor 1 receptor antagonists” (Bioorg Med Chem Lett, 2005).

SMILES strings stand for the structures.

Series [1] has as its target T1, Corticotropin-releasing factor receptor 1 (Homo sapiens, UniProt P34998).
T1 sequence (P34998 whole entry): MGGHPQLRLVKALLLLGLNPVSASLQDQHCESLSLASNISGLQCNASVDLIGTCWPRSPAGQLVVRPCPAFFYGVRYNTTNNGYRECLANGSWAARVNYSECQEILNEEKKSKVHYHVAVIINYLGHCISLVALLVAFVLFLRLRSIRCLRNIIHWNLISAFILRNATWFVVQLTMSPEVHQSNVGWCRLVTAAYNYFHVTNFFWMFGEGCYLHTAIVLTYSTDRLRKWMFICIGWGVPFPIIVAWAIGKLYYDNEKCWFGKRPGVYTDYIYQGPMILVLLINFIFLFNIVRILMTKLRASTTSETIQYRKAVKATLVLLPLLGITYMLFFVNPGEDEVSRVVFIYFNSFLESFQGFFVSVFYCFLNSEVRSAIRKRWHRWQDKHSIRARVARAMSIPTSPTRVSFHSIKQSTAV
Put plainly: Displacement of [125I]-Tyr-o- CRF from human corticotropin releasing factor receptor 1 expressed in IMR-32 cells. It counts as cell-based.

Series [2] in a line: Volume of distribution upon intravenous administration of 2 mg/kg of dose in a dosing vehicle of 10/10/80 cremaphor/DMSO/water. Further details: dose 2 mg/kg, route intravenous. It counts as ADME, organism-based. Particulars: in vivo.
Series [3] can be described thus: Brain to plasma (2 hours) concentration ratio upon intravenous administration of 2 mg/kg of dose in a dosing vehicle of 10/10/80 cremaphor/DMSO/water. It is filed as ADME, organism-based. Further details: dose 2 mg/kg, route intravenous. The conditions noted are these: brain and plasma, read-out: B/P.
A short description of series [4]: Area under curve (0-24 hr) upon oral administration of 10 mg/kg of dose in a dosing vehicle of 10/10/80 cremaphor/DMSO/water. It counts as ADME, organism-based. Further details: time < 24 hr, dose 10 mg/kg, route oral. Particulars: in vivo.
The nature of series [5]: Maximum concentration upon oral administration of 10 mg/kg of dose in a dosing vehicle of 10/10/80 cremaphor/DMSO/water. It is filed as ADME, organism-based. Further details: dose 10 mg/kg, route oral. Particulars: in vivo.
Series [6] in a line: Bioavailability upon oral administration of 10 mg/kg of dose in a dosing vehicle of 10/10/80 cremaphor/DMSO/water. It counts as ADME, organism-based. Particulars: eutheria, in vivo.
The nature of series [7]: Maximum time to reach peak concentration upon oral administration of 10 mg/kg of dose in a dosing vehicle of 10/10/80 cremaphor/DMSO/water. It counts as ADME, organism-based. Further details: dose 10 mg/kg, route oral. The conditions noted are these: in vivo.
Series [8] can be described thus: Clearance upon intravenous administration of 2 mg/kg of dose in a dosing vehicle of 10/10/80 cremaphor/DMSO/water. Further details: dose 2 mg/kg, route intravenous. Particulars: in vivo. It is filed as ADME, organism-based.

Turning to `CCc1nc2n(c1C(=O)N(Cc1ccccc1)Cc1ccccc1)CCN2c1c(C)cc(C)cc1C`, the Ki in series [1] was greater than 10 µM.
Regarding `CCc1nc2n(c1C(=O)N(CC)CCC1CC1)CCN2c1c(C)cc(C)cc1C`, the Ki in series [1] worked out at 0.61 µM. This lies in the sub-micromolar range.
As for `CCc1nc2n(c1C(=O)N(CCC(F)(F)F)Cc1ccccc1)CCN2c1c(C)cc(C)cc1C`, affinity in series [1] was put at a Ki of 0.66 µM.
For `CCc1nc2n(c1C(=O)N(CC1CC1)CC(F)(F)F)CCN2c1c(C)cc(Cl)cc1Cl`, in series [1], the Ki turned out to be 0.024 µM. Against the preceding compound, the Ki is about 28-fold lower.
As to `CCc1nc2n(c1C(=O)N1CCNCC1)CCN2c1c(C)cc(C)cc1C`, in series [1], the Ki was greater than 10 µM.
The compound `CCCN(CCC1CC1)C(=O)c1c(CC)nc2n1CCN2c1c(C)cc(C)cc1C` yielded an inhibition constant Ki in series [1] of 0.77 µM.
`CCc1nc2n(c1C(=O)N(CC1CC1)CC(F)(F)F)CCN2c1c(C)cc(C)cc1C` came in with an inhibition constant Ki in series [1] of 0.041 µM. This Ki lies about 19-fold lower than the previous one.
`CCCN(CC1CC1)C(=O)c1c(CC)nc2n1CCN2c1ccc(C(C)C)cc1Br` yielded a Ki in series [1] of 1.56 µM.
In turn, `CCc1nc2n(c1C(=O)N(CC)CC1CC1)CCN2c1c(C)cc(C)cc1C` showed a Ki in series [1] of 0.094 µM.
In the case of `CCCN(CC1CC1)C(=O)c1c(CC)nc2n1CCN2c1c(C)cc(C)cc1C`, in series [2], the distribution volume (Vd) turned out to be 5.7 L/kg. Also, the Kp at 2 h in series [3] was 0.21. In addition, the AUC(0-t) at 24 h in series [4] was 1.52 µg·h/mL. For the same compound, in series [5], the peak level (Cmax) was 0.25 µg/mL. For the same compound, the bioavailability in series [6] was found to be 32%. In addition, the Tmax in series [7] stood at 4 h. In addition, the clearance in series [8] is 2.1 L/h/kg. The Ki in series [1] amounted to 0.042 µM.
As for `CCCCN(CC)C(=O)c1c(CC)nc2n1CCN2c1c(C)cc(C)cc1C`, in series [1], affinity was put at a Ki of 0.29 µM.
Same read-out and setting: then `CCCN(CC1CC1)C(=O)c1c(CC)nc2n1CCN2c1c(C)cc(Cl)cc1Cl`, with 0.075 µM; and `CCc1nc2n(c1C(=O)N1CCN(c3ccccc3F)CC1)CCN2c1c(C)cc(C)cc1C`, with greater than 10 µM.
`CCCN(CC1CC1)C(=O)c1c(C)nc2n1CCN2c1c(C)cc(C)cc1C` had an inhibitory constant (Ki) in series [1] of 0.22 µM.
With `C=CCN(CCC)C(=O)c1c(CC)nc2n1CCN2c1c(C)cc(C)cc1C`, in series [1], the Ki was 0.74 µM.
On to `CCCN(Cc1cccc(F)c1)C(=O)c1c(CC)nc2n1CCN2c1c(C)cc(C)cc1C`, for which the affinity in series [1] corresponds to a Ki of 4.2 µM.
With `CCCN(Cc1c(C)nc2n1CCN2c1c(C)cc(C)cc1C)CC1CC1`, affinity in series [1] was put at a Ki of 6.6 µM. Against the preceding compound, the Ki is about 1.6-fold higher.
Compound `CCCN(CC1CC1)C(=O)c1c(CC)nc2n1CCN2c1c(C)cc(C)cc1Br` had a Ki in series [1] of 0.126 µM.
In the case of `CCCN(Cc1c(CC)nc2n1CCN2c1c(C)cc(C)cc1C)CC1CC1`, the affinity in series [1] corresponds to a Ki of 19 µM.
Regarding `CCc1nc2n(c1C(=O)N(CC1CC1)CC(F)(F)C(F)(F)F)CCN2c1c(C)cc(C)cc1C`, in series [1], the Ki stood at 0.063 µM.
On the same count and under the same terms, then `CCc1nc2n(c1C(=O)N(CC1CC1)CC(F)(F)F)CCN2c1c(C)cc(C)cc1Br`, with 0.026 µM; and `CCc1nc2n(c1C(=O)N(CC)CCN(C)C)CCN2c1c(C)cc(C)cc1C`, with greater than 10 µM; and `C=CCN(CC=C)C(=O)c1c(CC)nc2n1CCN2c1c(C)cc(C)cc1C`, with 3 µM.
Take `CCc1nc2n(c1C(=O)N(CC1CC1)CC1CC1)CCN2c1c(C)cc(C)cc1C`: in series [1], the affinity corresponds to a Ki of 0.068 µM.
Take `CCCN(CC1CC1)C(=O)c1c(CC)nc2n1CCN2c1c(C)cc(C)cc1Cl`: affinity in series [1] was put at a Ki of 0.094 µM.
The same measure, in the same setting: the same measure for `CCCN(CCC(F)(F)F)C(=O)c1c(CC)nc2n1CCN2c1c(C)cc(C)cc1C`: 0.22 µM; for `CCc1nc2n(c1C(=O)N1CCN(C(C)=O)CC1)CCN2c1c(C)cc(C)cc1C`: greater than 10 µM.
The same measure, in the same setting: the same measure for `CCc1nc2n(c1C(=O)N(CCC(F)(F)F)CC1CC1)CCN2c1c(C)cc(C)cc1C`: 0.073 µM; for `CCc1nc2n(c1C(=O)N(CC1CC1)CC(F)(F)F)CCN2c1ccc(C(C)C)cc1Br`: 0.27 µM.
Still for that read-out and setting: the same measure for `CCc1nc2n(c1C(=O)N(CCC(F)(F)F)Cc1ccc(Cl)cc1)CCN2c1c(C)cc(C)cc1C`: 0.27 µM; for `CCCN(CCc1ccccc1)C(=O)c1c(CC)nc2n1CCN2c1c(C)cc(C)cc1C`: 0.22 µM; for `CCCN(Cc1ccc(Cl)cc1)C(=O)c1c(CC)nc2n1CCN2c1c(C)cc(C)cc1C`: 3 µM.
In turn, `CCc1nc2n(c1C(=O)Nc1ccccc1)CCN2c1c(C)cc(C)cc1C` came in with an inhibitory constant (Ki) in series [1] greater than 10 µM.
`CCc1nc2n(c1C(=O)N(CC1CC1)CC(F)(F)F)CCN2c1c(C)cc(C)cc1Cl` returned a Ki in series [1] of 0.041 µM.
In the case of `CCCN(Cc1ccccc1)C(=O)c1c(CC)nc2n1CCN2c1c(C)cc(C)cc1C`, the affinity in series [1] corresponds to a Ki of 4.1 µM.
In series [1], `CCCN(CCC)C(=O)c1c(CC)nc2n1CCN2c1c(C)cc(C)cc1C` showed a Ki of 0.1 µM.
Still for that read-out and setting: the same measure for `CCc1nc2n(c1C(=O)N(CCC1CC1)CCC(F)(F)F)CCN2c1c(C)cc(C)cc1C`: 0.65 µM; for `CCCN(CC(F)(F)F)C(=O)c1c(CC)nc2n1CCN2c1c(C)cc(C)cc1C`: 0.061 µM.
